{
  "source": "ChEMBL document CHEMBL5696442",
  "about": "“Discovery of type II inhibitors of TGFβ-activated kinase 1 (TAK1) and mitogen-activated protein kinase kinase kinase kinase 2 (MAP4K2)” (J Med Chem, 2015)",
  "key": {"[1]": {"target": "DNA-PK/Ku70/Ku85 (Homo sapiens) (UniProt P78527+P12956+P13010)", "assay": "Inhibition of DNAPK ATP labeling site harbouring EHPFLVKGGEDLR in human Huh-7 cell lysate at 1 uM by KiNativ Profiling analysis relative to control", "format": "subcellular"}, "[2]": {"target": "Epidermal growth factor receptor (Homo sapiens) (UniProt P00533)", "assay": "Inhibition of EGFR Lys1 labeling site harbouring IPVAIKELR in human Huh-7 cell lysate at 1 uM by KiNativ Profiling analysis relative to control", "format": "subcellular"}, "[3]": {"target": "Cyclin-dependent kinase 1 (Homo sapiens) (UniProt P06493)", "assay": "Inhibition of CDC2 Lys2 labeling site in human Huh-7 cells at 1 uM by KiNativ Profiling analysis relative to control", "format": "cell-based"}, "[4]": {"assay": "Inhibition of KHS1 Lys2 labeling site harbouring DIKGANILLTDHGDVKLADFGVAAK in human Huh-7 cells at 1 uM by KiNativ Profiling analysis relative to control", "settings": "condition cancer"}, "[5]": {"target": "Serine/threonine-protein kinase 24 (Homo sapiens) (UniProt Q9Y6E0)", "assay": "Inhibition of MST3 Lys2 labeling site harbouring IHRDIKAANVLLSEHGEVK in human Huh-7 cells at 1 uM by KiNativ Profiling analysis relative to control", "format": "cell-based"}, "[6]": {"target": "Insulin receptor-related protein (Homo sapiens) (UniProt P14616)", "sequence (P14616 27-742 limits assumed)": "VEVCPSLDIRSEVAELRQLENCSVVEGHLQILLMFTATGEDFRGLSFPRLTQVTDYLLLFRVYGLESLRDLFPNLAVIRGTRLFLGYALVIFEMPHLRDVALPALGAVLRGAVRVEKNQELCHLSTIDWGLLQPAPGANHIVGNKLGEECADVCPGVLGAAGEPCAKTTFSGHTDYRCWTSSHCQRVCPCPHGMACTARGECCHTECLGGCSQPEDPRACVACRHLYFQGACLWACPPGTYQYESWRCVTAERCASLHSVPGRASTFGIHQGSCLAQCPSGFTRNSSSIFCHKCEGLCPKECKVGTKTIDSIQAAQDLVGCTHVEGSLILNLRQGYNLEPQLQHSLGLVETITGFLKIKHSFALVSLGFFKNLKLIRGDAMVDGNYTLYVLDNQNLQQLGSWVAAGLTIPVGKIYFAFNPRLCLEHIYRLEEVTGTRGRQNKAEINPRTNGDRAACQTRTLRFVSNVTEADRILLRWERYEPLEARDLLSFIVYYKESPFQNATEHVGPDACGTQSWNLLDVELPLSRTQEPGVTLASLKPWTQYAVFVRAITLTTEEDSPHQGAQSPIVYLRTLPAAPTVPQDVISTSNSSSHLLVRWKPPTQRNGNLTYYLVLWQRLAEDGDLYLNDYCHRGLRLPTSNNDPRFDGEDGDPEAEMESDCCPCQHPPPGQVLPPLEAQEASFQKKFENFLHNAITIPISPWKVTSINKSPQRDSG", "sequence (P14616 747-1297 limits assumed)": "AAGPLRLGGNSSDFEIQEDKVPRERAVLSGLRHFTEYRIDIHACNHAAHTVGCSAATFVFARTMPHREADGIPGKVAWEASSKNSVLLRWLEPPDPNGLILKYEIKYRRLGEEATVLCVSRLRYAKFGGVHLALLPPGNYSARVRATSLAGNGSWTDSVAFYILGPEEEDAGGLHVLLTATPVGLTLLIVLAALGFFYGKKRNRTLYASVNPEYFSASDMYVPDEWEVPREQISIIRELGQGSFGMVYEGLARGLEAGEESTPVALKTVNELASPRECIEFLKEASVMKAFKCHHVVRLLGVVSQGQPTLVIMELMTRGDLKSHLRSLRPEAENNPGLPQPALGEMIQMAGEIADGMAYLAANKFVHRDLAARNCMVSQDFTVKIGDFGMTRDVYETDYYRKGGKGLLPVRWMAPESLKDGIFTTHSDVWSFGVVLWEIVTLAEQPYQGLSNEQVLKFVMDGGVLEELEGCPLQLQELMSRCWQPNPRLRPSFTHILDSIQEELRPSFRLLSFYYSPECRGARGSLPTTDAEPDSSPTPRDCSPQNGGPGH", "assay": "Inhibition of INSRR (unknown origin) at 10 uM by Ambit Kinomescan binding assay relative to control"}, "[7]": {"target": "Serine/threonine-protein kinase MRCK alpha (Homo sapiens) (UniProt Q5VT25)", "sequence (Q5VT25 whole entry)": "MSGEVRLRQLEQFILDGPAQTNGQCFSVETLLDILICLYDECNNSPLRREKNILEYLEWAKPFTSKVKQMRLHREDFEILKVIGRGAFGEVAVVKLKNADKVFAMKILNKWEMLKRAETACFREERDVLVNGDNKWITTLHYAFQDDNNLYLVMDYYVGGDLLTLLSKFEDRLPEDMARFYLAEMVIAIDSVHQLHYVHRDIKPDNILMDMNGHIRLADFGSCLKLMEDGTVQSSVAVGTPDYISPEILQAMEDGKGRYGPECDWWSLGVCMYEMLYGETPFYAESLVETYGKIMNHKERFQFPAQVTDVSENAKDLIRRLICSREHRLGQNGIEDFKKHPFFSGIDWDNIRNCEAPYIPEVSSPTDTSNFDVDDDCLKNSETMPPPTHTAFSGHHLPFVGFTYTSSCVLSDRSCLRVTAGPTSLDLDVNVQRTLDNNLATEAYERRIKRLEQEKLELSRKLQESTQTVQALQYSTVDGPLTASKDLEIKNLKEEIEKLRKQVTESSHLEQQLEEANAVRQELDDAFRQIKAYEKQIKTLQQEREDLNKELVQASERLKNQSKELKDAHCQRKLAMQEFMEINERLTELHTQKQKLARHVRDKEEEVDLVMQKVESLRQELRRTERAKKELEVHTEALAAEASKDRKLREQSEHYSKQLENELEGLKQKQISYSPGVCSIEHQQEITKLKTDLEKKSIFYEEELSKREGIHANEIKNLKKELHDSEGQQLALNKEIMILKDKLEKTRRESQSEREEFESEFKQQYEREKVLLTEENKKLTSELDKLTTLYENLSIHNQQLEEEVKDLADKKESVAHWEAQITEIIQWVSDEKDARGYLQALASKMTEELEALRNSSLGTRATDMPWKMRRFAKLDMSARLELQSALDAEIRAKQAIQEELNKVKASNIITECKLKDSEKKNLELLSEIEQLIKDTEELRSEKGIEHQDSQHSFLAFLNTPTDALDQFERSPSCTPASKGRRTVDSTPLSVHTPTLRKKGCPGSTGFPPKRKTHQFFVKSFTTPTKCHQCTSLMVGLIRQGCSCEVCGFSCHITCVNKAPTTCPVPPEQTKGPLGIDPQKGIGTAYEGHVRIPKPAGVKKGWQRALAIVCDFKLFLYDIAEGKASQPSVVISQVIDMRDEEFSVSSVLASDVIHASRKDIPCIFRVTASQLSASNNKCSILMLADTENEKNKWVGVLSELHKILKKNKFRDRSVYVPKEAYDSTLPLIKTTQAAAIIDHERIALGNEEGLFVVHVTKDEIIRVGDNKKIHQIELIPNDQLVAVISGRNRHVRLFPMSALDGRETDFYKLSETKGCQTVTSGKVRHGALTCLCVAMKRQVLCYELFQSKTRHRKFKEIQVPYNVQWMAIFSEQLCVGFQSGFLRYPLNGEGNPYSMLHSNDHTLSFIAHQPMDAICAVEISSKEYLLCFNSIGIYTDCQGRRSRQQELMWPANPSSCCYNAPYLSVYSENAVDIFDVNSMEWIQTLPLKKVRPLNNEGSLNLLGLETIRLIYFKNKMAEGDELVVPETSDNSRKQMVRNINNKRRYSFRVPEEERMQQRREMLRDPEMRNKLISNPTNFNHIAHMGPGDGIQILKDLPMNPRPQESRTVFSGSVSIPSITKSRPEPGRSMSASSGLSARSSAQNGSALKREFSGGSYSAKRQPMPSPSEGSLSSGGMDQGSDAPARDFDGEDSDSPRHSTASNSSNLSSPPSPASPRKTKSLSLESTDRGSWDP", "assay": "Inhibition of MRCKA (unknown origin) at 10 uM by Ambit Kinomescan binding assay"}, "[8]": {"target": "T1, Phosphatidylinositol 4,5-bisphosphate 3-kinase catalytic subunit delta isoform (Homo sapiens) (UniProt O00329)", "T1 sequence (whole entry)": "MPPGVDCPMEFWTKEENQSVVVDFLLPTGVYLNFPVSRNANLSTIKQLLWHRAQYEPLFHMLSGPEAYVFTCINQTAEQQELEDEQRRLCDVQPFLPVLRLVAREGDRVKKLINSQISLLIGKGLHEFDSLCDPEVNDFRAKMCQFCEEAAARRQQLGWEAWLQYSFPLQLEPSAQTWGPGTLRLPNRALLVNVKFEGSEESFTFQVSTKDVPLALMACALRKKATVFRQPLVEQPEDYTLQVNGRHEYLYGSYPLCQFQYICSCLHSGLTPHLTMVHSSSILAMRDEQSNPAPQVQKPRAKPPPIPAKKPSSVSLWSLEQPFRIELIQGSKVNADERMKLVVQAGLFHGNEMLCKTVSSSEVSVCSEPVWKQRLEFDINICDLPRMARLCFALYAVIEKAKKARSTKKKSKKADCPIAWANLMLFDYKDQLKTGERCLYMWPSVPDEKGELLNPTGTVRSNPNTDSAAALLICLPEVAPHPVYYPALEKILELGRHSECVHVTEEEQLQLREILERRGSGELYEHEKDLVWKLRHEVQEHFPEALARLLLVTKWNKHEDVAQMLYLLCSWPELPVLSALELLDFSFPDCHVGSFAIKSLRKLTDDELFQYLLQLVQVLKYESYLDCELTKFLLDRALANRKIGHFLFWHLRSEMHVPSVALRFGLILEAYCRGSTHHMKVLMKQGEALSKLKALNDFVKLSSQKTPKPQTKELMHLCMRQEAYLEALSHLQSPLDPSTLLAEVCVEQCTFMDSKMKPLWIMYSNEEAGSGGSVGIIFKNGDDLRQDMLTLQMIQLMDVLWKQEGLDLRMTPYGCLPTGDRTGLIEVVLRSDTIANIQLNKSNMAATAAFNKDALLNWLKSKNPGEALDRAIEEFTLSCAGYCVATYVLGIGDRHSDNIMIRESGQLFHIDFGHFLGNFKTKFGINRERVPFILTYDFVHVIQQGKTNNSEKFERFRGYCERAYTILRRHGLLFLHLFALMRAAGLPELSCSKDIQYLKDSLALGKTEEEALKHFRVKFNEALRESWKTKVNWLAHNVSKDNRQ", "assay": "Inhibition of PIK3CD (unknown origin) at 10 uM by Ambit Kinomescan binding assay"}, "[9]": {"target": "Tyrosine-protein kinase HCK (Homo sapiens) (UniProt P08631)", "sequence (P08631 2-526 limits assumed)": "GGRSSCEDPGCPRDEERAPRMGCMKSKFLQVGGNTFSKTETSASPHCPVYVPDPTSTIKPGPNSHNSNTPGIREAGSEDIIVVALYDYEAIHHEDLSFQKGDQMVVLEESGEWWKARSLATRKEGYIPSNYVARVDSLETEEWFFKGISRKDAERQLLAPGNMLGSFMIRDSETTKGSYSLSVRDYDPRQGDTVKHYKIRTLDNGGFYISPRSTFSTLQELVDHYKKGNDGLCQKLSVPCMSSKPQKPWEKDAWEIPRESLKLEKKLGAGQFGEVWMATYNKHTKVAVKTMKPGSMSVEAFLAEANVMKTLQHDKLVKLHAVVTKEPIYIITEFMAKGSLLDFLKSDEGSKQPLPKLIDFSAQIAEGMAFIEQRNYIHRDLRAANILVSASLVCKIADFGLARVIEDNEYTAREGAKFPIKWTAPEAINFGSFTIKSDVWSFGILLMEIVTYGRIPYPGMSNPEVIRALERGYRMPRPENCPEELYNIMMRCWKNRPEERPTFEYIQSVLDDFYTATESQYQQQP", "assay": "Inhibition of HCK (unknown origin) at 10 uM by Ambit Kinomescan binding assay relative to control; values are per cent of control"}, "[10]": {"test_system": "Epidermal growth factor receptor (Homo sapiens), P00533 [G719C]", "assay": "Inhibition of EGFR G719C mutant (unknown origin) at 1 uM by Ambit Kinomescan binding assay relative to control"}, "[11]": {"target": "Serine/threonine-protein kinase RIO3 (Homo sapiens) (UniProt O14730)", "sequence (O14730 whole entry)": "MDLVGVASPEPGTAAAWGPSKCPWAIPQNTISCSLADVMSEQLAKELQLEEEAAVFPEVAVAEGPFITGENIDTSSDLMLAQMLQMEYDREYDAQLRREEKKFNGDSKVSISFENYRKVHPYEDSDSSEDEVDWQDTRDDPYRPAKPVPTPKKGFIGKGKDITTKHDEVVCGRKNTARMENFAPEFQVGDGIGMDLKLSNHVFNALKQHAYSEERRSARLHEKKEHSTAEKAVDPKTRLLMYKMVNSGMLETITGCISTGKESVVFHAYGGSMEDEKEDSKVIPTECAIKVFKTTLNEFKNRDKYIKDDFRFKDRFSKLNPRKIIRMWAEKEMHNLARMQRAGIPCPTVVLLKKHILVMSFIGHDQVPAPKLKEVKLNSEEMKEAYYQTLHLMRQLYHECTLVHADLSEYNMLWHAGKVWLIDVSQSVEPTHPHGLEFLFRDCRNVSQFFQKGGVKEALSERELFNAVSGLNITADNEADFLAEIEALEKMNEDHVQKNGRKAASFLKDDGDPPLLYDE", "assay": "Inhibition of RIOK3 (unknown origin) at 1 uM by Ambit Kinomescan binding assay relative to control"}, "[12]": {"target": "TGF-beta receptor type-1 (Homo sapiens) (UniProt P36897)", "assay": "Inhibition of TGFBR1 (unknown origin) at 1 uM by Ambit Kinomescan binding assay relative to control"}, "[13]": {"target": "T2, Serine/threonine-protein kinase ULK3 (Homo sapiens) (UniProt Q6PHR2)", "T2 sequence (whole entry)": "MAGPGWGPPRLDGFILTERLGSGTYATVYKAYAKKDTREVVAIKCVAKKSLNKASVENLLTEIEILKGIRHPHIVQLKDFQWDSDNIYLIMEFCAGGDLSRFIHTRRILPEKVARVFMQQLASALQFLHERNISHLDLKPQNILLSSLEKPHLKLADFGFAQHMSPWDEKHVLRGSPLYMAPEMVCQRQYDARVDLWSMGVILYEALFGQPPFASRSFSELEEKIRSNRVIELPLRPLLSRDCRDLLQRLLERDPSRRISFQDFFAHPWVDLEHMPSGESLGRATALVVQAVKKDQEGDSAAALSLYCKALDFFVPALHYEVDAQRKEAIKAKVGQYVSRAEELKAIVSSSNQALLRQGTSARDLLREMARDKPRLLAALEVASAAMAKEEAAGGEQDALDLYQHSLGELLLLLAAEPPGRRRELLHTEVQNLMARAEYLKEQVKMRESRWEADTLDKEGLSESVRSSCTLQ", "assay": "Inhibition of ULK3 (unknown origin) at 1 uM by Ambit Kinomescan binding assay relative to control"}, "[14]": {"target": "Cyclin-dependent kinase 9 (Homo sapiens) (UniProt P50750)", "assay": "Inhibition of CDK9 Lys2 labeling site in human A-375 cells at 0.5 uM by KiNativ Profiling analysis relative to control", "format": "cell-based"}, "[15]": {"target": "Serine/threonine-protein kinase VRK2 (Homo sapiens) (UniProt Q86Y07)", "sequence (Q86Y07 whole entry)": "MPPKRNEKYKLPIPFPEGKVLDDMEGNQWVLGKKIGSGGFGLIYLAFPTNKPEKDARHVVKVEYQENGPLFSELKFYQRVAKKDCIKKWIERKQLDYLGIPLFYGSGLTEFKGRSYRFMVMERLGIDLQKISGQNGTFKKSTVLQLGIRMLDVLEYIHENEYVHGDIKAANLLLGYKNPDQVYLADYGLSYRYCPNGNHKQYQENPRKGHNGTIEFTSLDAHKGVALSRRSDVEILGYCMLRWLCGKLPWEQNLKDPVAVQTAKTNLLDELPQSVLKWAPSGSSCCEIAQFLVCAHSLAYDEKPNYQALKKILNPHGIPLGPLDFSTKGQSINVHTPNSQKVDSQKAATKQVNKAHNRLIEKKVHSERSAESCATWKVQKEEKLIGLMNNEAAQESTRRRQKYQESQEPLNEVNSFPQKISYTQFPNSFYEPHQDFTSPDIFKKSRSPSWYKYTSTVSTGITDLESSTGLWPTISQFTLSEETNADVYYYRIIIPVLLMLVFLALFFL", "assay": "Inhibition of VRK2 Lys2 labeling site in human A-375 cells at 0.5 uM by KiNativ Profiling analysis relative to control", "format": "cell-based"}, "[16]": {"target": "Cyclin-dependent kinase 2 homolog (Plasmodium falciparum (isolate K1 / Thailand)) (UniProt Q07785)", "sequence (Q07785 whole entry)": "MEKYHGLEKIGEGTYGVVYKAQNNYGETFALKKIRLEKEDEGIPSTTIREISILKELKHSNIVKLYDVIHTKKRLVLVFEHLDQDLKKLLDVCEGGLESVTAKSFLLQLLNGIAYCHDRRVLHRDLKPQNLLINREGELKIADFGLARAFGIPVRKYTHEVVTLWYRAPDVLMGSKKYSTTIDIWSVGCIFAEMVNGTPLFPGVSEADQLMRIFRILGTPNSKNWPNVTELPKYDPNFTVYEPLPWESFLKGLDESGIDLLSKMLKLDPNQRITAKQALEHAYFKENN", "assay": "Inhibition of Plasmodium falciparum PK5 at 1 uM by Ambit Kinomescan binding assay relative to control; values are per cent of control"}},
  "note": "Active and inactive are the calls of the source. No cut-off for these calls is given here.",
  "data": [
    {"smiles": "CNc1cc(Oc2cc(C(=O)Nc3cc(N4CCN(C)CC4)cc(C(F)(F)F)c3)ccc2C)ncn1", "values": [
      {"measurement": "inhibition", "setting": "[1]", "result": -6.7, "unit": "%"},
      {"measurement": "inhibition", "setting": "[2]", "result": 4.5, "unit": "%"},
      {"measurement": "inhibition", "setting": "[3]", "result": 5, "unit": "%"},
      {"measurement": "inhibition at 1 µM", "setting": "[4]", "result": 19.8, "unit": "%"},
      {"measurement": "inhibition", "setting": "[5]", "result": 5, "unit": "%"}
    ]},
    {"smiles": "CCN1CCN(Cc2ccc(NC(=O)c3ccc(C)c(Oc4ccnc5[nH]ccc45)c3)cc2C(F)(F)F)CC1", "values": [
      {"measurement": "inhibition", "setting": "[6]", "result": 23, "unit": "%"},
      {"measurement": "inhibition", "setting": "[7]", "result": "inactive"},
      {"measurement": "inhibition", "setting": "[8]", "result": "inactive"},
      {"measurement": "percent of control", "setting": "[9]", "result": 0.4, "unit": "%"}
    ]},
    {"smiles": "CCN1CCN(Cc2ccc(NC(=O)c3ccc(C)c(/C=C/c4cnc5[nH]ccc5c4OC)c3)cc2C(F)(F)F)CC1", "values": [
      {"measurement": "inhibition", "setting": "[10]", "result": 0.45, "unit": "%"},
      {"measurement": "inhibition", "setting": "[11]", "result": 27, "unit": "%"},
      {"measurement": "inhibition", "setting": "[12]", "result": 100, "unit": "%"},
      {"measurement": "inhibition", "setting": "[13]", "result": 55, "unit": "%"},
      {"measurement": "inhibition", "setting": "[14]", "result": 1.5, "unit": "%"},
      {"measurement": "inhibition", "setting": "[15]", "result": 28.5, "unit": "%"},
      {"measurement": "residual activity", "setting": "[16]", "result": 100, "unit": "%"}
    ]}
  ]
}
